Patent US20160022621A1, “COMPOSITION FOR ORAL ADMINISTRATION FOR BINDING ALDEHYDES IN THE GASTROINTESTINAL TRACT” (BIOHIT OYJ, priority 2013, published 2016)

Key:
[1] = Acetaldehyde-binding: acetaldehyde and ethanol levels in gastric juice after oral L-cysteine tablets and ethanol; assay type: in vivo, human; details: L-cysteine total 200 mg oral, film-coated tablets; ethanol 0.3 g/kg, 15 vol %; all measurements
Protocol: An analysis was carried out after administering L-cysteine (in a total of 200 mg) or placebo, orally to subjects. This cysteine or placebo was formulated into film-coated tablets as described above, with the cysteine or the placebo in granules together with a polymer not dissolving in the stomach and an inert bulking agent. The subjects swallowed said tablets with 200 ml of water. Immediately thereafter they were given ethanol (0.3 g/kg body weight) diluted in water to 15 vol %. Gastric juice samples were collected, and their L-cysteine concentrations were determined using HPLC, and two parallel samples. […] In all measurements, the average acetaldehyde concentration of the gastric juice was 2.6 times higher with placebo than with cysteine. […] The average ethanol concentration in the gastric juice was 5.0 vol-% in the first sample, declining to 0.9 vol-% in the 40-minute sample. A positive correlation emerged between the acetaldehyde concentration and the ethanol concentration.

[2] = L-cysteine concentration in gastric juice (HPLC) after oral tablets; assay type: in vivo, human; details: after oral administration of study formulations containing L-cysteine (total 200 mg)
Protocol: An analysis was carried out after administering L-cysteine (in a total of 200 mg) or placebo, orally to subjects. This cysteine or placebo was formulated into film-coated tablets as described above, with the cysteine or the placebo in granules together with a polymer not dissolving in the stomach and an inert bulking agent. The subjects swallowed said tablets with 200 ml of water. Immediately thereafter they were given ethanol (0.3 g/kg body weight) diluted in water to 15 vol %.
Gastric juice samples were collected, and their L-cysteine concentrations were determined using HPLC, and two parallel samples.
The mean cysteine concentrations are represented in FIG. 2. After administration of placebo formulations, no L-cysteine was detected. No significant correlation was found between the cysteine concentration and the acetaldehyde concentration.

In the case of `N[C@@H](CS)C(=O)O` [L-cysteine], the “average acetaldehyde concentration of the gastric juice, times higher with placebo than with cysteine” value [1] is reported as 2.6 times and the “L-cysteine detected in gastric juice” value [2] is reported as “detected in the gastric juice of all subjects”.
